Data published in patent US20180280385A1, “NINTEDANIB FOR USE IN METHODS FOR THE TREATMENT OF MUSCULAR DYSTROPHY” (Boehringer Ingelheim International GmbH, priority 2017, published 2018).

Tests used:
animal model of DMD = conditions: literature (Bizario 2009; Huang 2009; Ito 2013); cited from earlier work
mdx mice [1] = experiment: Collagen I expression by western blotting in muscle tissue of mdx mice, 1st study; assay type: in vivo, mouse; conditions: western blot, normalized to alpha-tubulin; versus mdx mice; 60 mg/kg once daily, 4 weeks
Procedure: The treatment of the mdx mice with nintedanib started at an age of 10 months in the 1st study and at 6 weeks in a 2nd study. Treatment duration was 4 weeks in the 1st study and 7 weeks in the 2nd study. Nintedanib was used at a dose of 60 mg/kg once daily administered intragastrically via gavage in both studies. In the 1st study, 7 mdx mice were treated with nintedanib, 5 mdx mice with the vehicle as placebo and 5 C57Bl6/mice (=wild type=WT) were used as unaffected, untreated control animals. At the end of the 1st study, electrophysiological examinations using electroneurography and electromyography and a histological analysis were performed. In addition, the level of collagen I expression was investigated using western blot in 4 mice of each test group.

mdx mice [2] = experiment: Hanging wire test in mdx mice, 2nd study; assay type: in vivo, mouse; conditions: mdx mice from 6 weeks of age, 60 mg/kg once daily intragastrically
Procedure: The treatment of the mdx mice with nintedanib started at an age of 10 months in the 1st study and at 6 weeks in a 2nd study. Treatment duration was 4 weeks in the 1st study and 7 weeks in the 2nd study. Nintedanib was used at a dose of 60 mg/kg once daily administered intragastrically via gavage in both studies. In the 2nd study, 7 mdx mice were treated with nintedanib, 5 mdx mice with the vehicle as placebo and no WT control was included as unaffected, untreated control animals. At the end of the 2nd study, a hanging wire test was performed. In the 2nd study a so called “hanging wire” test was performed (see section Examples and Experimental Data; Rabl et al., BMC Neurosci 2017, 18, 22). This test can be used to assess global “subacute” muscle function and coordination over time in young and old mdx mice. The longest suspension time (LST) and the “fall and reaches” score (FRS) were recorded before the start of the treatment period and after 7 weeks of treatment with nintedanib. […]

mdx mice [3] = experiment: Electromyography (percentage of small, medium and large MUAPs) in mdx mice, 1st study; assay type: in vivo, mouse; conditions: mdx mice aged 10 months, 60 mg/kg once daily intragastrically, 4 weeks
Source text: (§1) The mdx mouse is a well characterized and widely used animal model for drug tests for DMD (Bulfield et al., Proc Natl Acad Sci USA 1984, 81, 1189-92). Mdx mice spontaneously develop a pathology resembling aspects of the human disease. They present cycles of degeneration and regeneration in the limb muscles and a progressive degeneration and fibrosis in the diaphragm (Coirault et al., J Appl Physiol 2003, 94, 1744-50). The first wave of degeneration peaks in the fourth week of life. At day 21, muscular lesions can be observed, including myofiber necrosis, leaking myofibers as a consequence of injuries to the sarcolemma, high levels of serum creatine kinase, and the presence of large areas of inflammation, connective tissue, and fat (Collins and Morgan, Int J Exp Pathol 2003, 84, 165-72; Grounds et al., Neurobiol Dis 2008, 31, 1-19). Compulsory physical activity can be applied to exacerbate the muscular degeneration during this phase (De Luca et al., Am J Pathol 2005, 166, 477-89; Grounds et al., Neurobiol Dis 2008, 31, 1-19). The treatment of the mdx mice with nintedanib started at an age of 10 months in the 1st study and at 6 weeks in a 2nd study. […] In the electromyography the percentage of small, medium and large motor unit action potentials (MUAPs) were recorded (Gordon et al., Can J Physiol Pharmacol 2004, 82, 645-661).

mdx mice [4] = experiment: Electroneurography (amplitude of motor evoked potentials / CMAP) in mdx mice, 1st study; assay type: in vivo, mouse; conditions: mdx mice aged 10 months, 60 mg/kg once daily intragastrically, 4 weeks; versus non-treated mdx mice; statistically significant in tibialis anterior
Source text: as §1, with “group of” for “electromyography”, “nintedanib-treated mdx mice, an increase in the amplitude” for “percentage”, “the” for “small, medium and large”, “evoked” for “unit action”, “in all nerves studied was detected in comparison to non-treated mdx mice (FIG. 1A-C). […]” for “(MUAPs) were recorded (Gordon et al., Can J Physiol Pharmacol 2004, 82, 645-661).”

mdx mice [5] = experiment: Histological analysis of muscular fibrosis incl. immunofluorescent staining for collagen VI in mdx mice, 1st study; assay type: in vivo, mouse
Procedure: The treatment of the mdx mice with nintedanib started at an age of 10 months in the 1st study and at 6 weeks in a 2nd study. Treatment duration was 4 weeks in the 1st study and 7 weeks in the 2nd study. Nintedanib was used at a dose of 60 mg/kg once daily administered intragastrically via gavage in both studies.
In the 1st study, 7 mdx mice were treated with nintedanib, 5 mdx mice with the vehicle as placebo and 5 C57Bl6/mice (=wild type=WT) were used as unaffected, untreated control animals. At the end of the 1st study, electrophysiological examinations using electroneurography and electromyography and a histological analysis were performed. In addition, the level of collagen I expression was investigated using western blot in 4 mice of each test group.
At the end of the 1st study, the diaphragm from non-treated mdx mice had increased fibrotic tissue areas, compared to WT mice, and inflammatory infiltrates.
The fibrotic area of the muscles was assessed using immunofluorescent staining for collagen VI (Col VI). 8 photographs from different muscle sections of the quadriceps, tibialis anterior and diaphragm were randomly taken. […] The reduction of 7% by nintedanib treatment was statistically significant (p<0.001) (FIG. 3A).

Row | Compound | efficacy in an animal model of DMD (animal model of DMD) | collagen I (Col I) expression in the diaphragm (mdx mice [1]) | collagen I (Col I) expression in the tibialis anterior (mdx mice [1]) | "fall and reaches" score (FRS) (mdx mice [2]; 7 week observation period, decreased in vehicle-treated mice) | longest suspension time (LST) (mdx mice [2]; after 7 weeks of treatment versus before start) | large MUAPs (mdx mice [3]) | percentage of small MUAPs (mdx mice [3]) | amplitude of the motor evoked potentials (CMAP) in all nerves studied (tibialis anterior, Gastrocnemius, Plantar muscle) (mdx mice [4]) | reduction of mean Col VI-stained fibrotic area of the diaphragma by treatment (mdx mice [5]; difference to non-treated mdx mice, p<0.001) [%] | inflammatory infiltrates in the diaphragm (histology) (mdx mice [5]; mdx mice aged 10 months, 60 mg/kg once daily intragastrically, 4 weeks) | fibrotic area of the diaphragm (histology) (mdx mice [5]; mdx mice aged 10 months, 60 mg/kg once daily intragastrically, 4 weeks, versus non-treated mdx mice) | Col VI staining in tibialis anterior sections (mdx mice [5]; mdx mice aged 10 months, 60 mg/kg once daily, 4 weeks, non-treated mdx 21.4%, p=0.06, not statistically significant) [%] | Col VI staining in quadriceps sections (mdx mice [5]; mdx mice aged 10 months, 60 mg/kg once daily, 4 weeks, non-treated mdx 25.4%, p=0.03) [%] | mean fibrotic area stained for Col VI on the diaphragma (mdx mice [5]; mdx mice aged 10 months, 60 mg/kg once daily, 4 weeks, non-treated mdx 57.8%, p<0.001) [%]
1 | Cc1ccc(NC(=O)c2ccc(CN3CCN(C)CC3)cc2)cc1Nc1nccc(-c2cccnc2)n1 [imatinib] | had shown efficacy |  |  |  |  |  |  |  |  |  |  |  |  | 
2 | COC(=O)c1ccc2c(c1)NC(=O)/C2=C(\Nc1ccc(N(C)C(=O)CN2CCN(C)CC2)cc1)c1ccccc1 [nintedanib, Nintedanib] |  | statistically significant decrease | statistically significant decrease | remained nearly constant | increased | increase | normalized | increase | 7 | not observed | clearly reduced | 18.9 | 23.1 | 50.8
